# Data: ChEMBL document CHEMBL1128582, “Chiral dioxolane inhibitors of leukotriene biosynthesis: structure-activity relationships and syntheses using asymmetric dihydroxylation” (J Med Chem, 1995)
# Target: T1, Polyunsaturated fatty acid 5-lipoxygenase (Homo sapiens, UniProt P09917)
# T1 sequence (P09917 whole entry): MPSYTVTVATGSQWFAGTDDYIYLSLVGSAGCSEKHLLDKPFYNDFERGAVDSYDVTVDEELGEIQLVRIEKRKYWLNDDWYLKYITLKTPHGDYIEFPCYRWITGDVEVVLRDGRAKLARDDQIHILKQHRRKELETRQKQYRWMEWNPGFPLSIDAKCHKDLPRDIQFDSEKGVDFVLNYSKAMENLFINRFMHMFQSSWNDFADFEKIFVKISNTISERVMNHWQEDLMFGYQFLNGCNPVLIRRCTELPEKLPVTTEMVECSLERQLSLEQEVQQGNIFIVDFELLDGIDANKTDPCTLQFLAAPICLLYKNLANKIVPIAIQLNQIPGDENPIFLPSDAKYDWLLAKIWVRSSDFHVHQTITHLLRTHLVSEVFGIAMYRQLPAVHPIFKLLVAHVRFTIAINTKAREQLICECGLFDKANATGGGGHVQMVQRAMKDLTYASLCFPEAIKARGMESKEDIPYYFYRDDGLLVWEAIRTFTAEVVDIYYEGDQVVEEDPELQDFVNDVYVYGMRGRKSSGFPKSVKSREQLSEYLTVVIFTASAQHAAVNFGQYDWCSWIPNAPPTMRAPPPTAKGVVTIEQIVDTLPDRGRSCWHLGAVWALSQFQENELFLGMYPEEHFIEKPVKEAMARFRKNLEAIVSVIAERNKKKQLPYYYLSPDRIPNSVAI
# Experiment: Inhibition of LT biosynthesis in vitro using A-23187-stimulated human whole blood.
# Type: functional, tissue-based
row,IC50,SMILES
1,350 nM,CC1(C)OCC(C)(c2cccc(OCc3ccc4ccccc4c3)c2)O1 (stereo unspecified)
2,30 nM,COC1(c2cc(Sc3ccc(N(C)C(C)=O)cc3)cc(F)c2C)CCOCC1
3,40 nM,COC1(c2cc(Sc3ccc4c(c3)OCC(=O)N4C)cc(F)c2C)CCOCC1
4,20 nM,COC1(c2cc(Sc3ccc4c(c3)CCC(=O)N4C)sc2C)CCOCC1
5,50 nM,C/C(=N\OCC#N)c1ccc(S(=O)(=O)c2cc([C@@]3(C)COC(C)(C)O3)cs2)cc1
6,200 nM,C/C(=N\O)c1ccc(S(=O)(=O)c2ncc([C@@]3(C)COC(C)(C)O3)s2)cc1
7,140 nM,COC1(c2sc(Sc3ccc4c(c3)CCC(=O)N4C)nc2C)CCOCC1
8,270 nM,CO/N=C(\C)c1ccc(Sc2cc(C3(C)COC(C)(C)O3)cs2)cc1 (stereo unspecified)
9,1510 nM,C/C(=N\OCCN1CCOCC1)c1ccc(Sc2cc([C@@]3(C)COC(C)(C)O3)cs2)cc1
10,210 nM,CN(C)S(=O)(=O)c1ccc(Sc2cc(C3(C)COC(C)(C)O3)cs2)cc1 (stereo unspecified)
11,100 nM,CN1C(=O)CCc2ccc(Sc3cc(C4(C)COC(C)(C)O4)cs3)cc21 (stereo unspecified)
12,120 nM,C/C(=N\OCC#N)c1ccc(S(=O)(=O)c2ncc([C@@]3(C)COC(C)(C)O3)s2)cc1
13,160 nM,CN(c1ccc(Sc2cc(C3(C)COC(C)(C)O3)cs2)cc1)S(C)(=O)=O (stereo unspecified)
14,90 nM,C/C(=N\O)c1ccc(S(=O)(=O)c2cc([C@@]3(C)COC(C)(C)O3)cs2)cc1
15,60 nM,COC1(c2cc(Sc3ccc4c(c3)CCC(=O)N4C)cc(F)c2C)CCOCC1
16,150 nM,CC(=O)N(C)c1ccc(Sc2cc(C3(C)COC(C)(C)O3)cs2)cc1 (stereo unspecified)

row,IC50,SMILES
1,40 nM,COC1(c2cc(S(=O)(=O)c3ccc4c(ccc(=O)n4C)c3)ccc2C)CCOCC1
2,1180 nM,CC(=O)N(C)c1ccc(Sc2cc([C@]3(C)COC(C)(C)O3)cs2)cc1
3,6210 nM,CC(=O)N(C)c1ccc(Sc2ncc([C@]3(C)COC(C)(C)O3)s2)cc1
4,840 nM,CC(=O)N(C)c1ccc(S(=O)(=O)c2cc(C3(C)COC(C)(C)O3)cs2)cc1 (stereo unspecified)
5,130 nM,C/C(=N\O)c1ccc(Sc2ncc([C@@]3(C)COC(C)(C)O3)s2)cc1
6,40 nM,C/C(=N\O)c1ccc(Sc2cc([C@@]3(C)COC(C)(C)O3)cs2)cc1
7,20 nM,COC1(c2cc(OCc3ccc4c(ccc(=O)n4C)c3)cc(F)c2C)CCOCC1
8,390 nM,CC(=O)c1ccc(Sc2ncc([C@@]3(C)COC(C)(C)O3)s2)cc1
9,20 nM,COC1(c2cc(Sc3ccc(/C(C)=N/O)cc3)cc(F)c2C)CCOCC1
10,600 nM,CC(=O)c1ccc(Sc2cc(C3(C)COC(C)(C)O3)cs2)cc1 (stereo unspecified)
11,40 nM,C/C(=N\O)c1ccc(Sc2cc(C3(C)COC(C)(C)O3)cs2)cc1 (stereo unspecified)
12,10 nM,C/C(=N\OCC#N)c1ccc(Sc2cc([C@@]3(C)COC(C)(C)O3)cs2)cc1
13,30 nM,C/C(=N\OCC#N)c1ccc(Sc2ncc([C@@]3(C)COC(C)(C)O3)s2)cc1
14,40 nM,CC(=O)N(C)c1ccc(Sc2cc([C@@]3(C)COC(C)(C)O3)cs2)cc1
15,40 nM,CN1C(=O)COc2ccc(Sc3cc(C4(C)COC(C)(C)O4)cs3)cc21 (stereo unspecified)
